Experimental data as given in paper PMC5192466, “Kunitz-Type Peptide HCRG21 from the Sea Anemone Heteractis crispa Is a Full Antagonist of the TRPV1 Receptor” (Marine Drugs, 2016).
“Also recorded” adds a separate entry of the source. Bridges are numbered along the chain shown (N, C = ends). Where no end group is shown, it is not given here.

Assays:
trypsin = experiment: Trypsin inhibition (Dixon method, BAPNA substrate); format: biochemical
Experimental: (§1) The trypsin/α-chymotrypsin inhibitory activity of the peptide was tested through the standard procedure using N-α-benzoyl-D,L-arginine p-nitroanilide hydrochloride (BAPNA) and ethyl ester of N-benzoyl-L-tyrosine (BTEE) as a substrates, respectively. Determination of the trypsin/α-chymotrypsin inhibition constants of rHCRG21 was performed according to the method of Dixon using substrates concentrations of 133 and 65 mM. The concentration of both enzymes in the reaction mixture was 215 nM. Concentrations of the tested peptide ranged from 0 up to 3.2 mM. The constants were calculated based on the results of three parallel experiments. Computational error limits are in the range of 0.1%–0.5%.

α-chymotrypsin = α-chymotrypsin (Bos taurus, UniProt P00766); experiment: α-Chymotrypsin inhibition (Dixon method, BTEE substrate); format: biochemical; conditions: 133 and 65 mM, enzyme 215 nM, peptide 0 up to 3.2 mM, three parallel experiments
Experimental: as §1

TRPV1 = target: T1, TRPV1 (Rattus norvegicus, UniProt O35433); experiment: cell-based
T1 construct: expressed in transfected cells; host or cells: Xenopus laevis oocytes injected with cRNA
Experimental: To control the expression level of the TRPV1 channels, experiments were initiated with a first activation of TRPV1 with 1 μM capsaicin (CAP). […] This activation gives an inward non-selective cation current. […] Before application of HCRG21, cells are washed with ND96 to remove any presence of […]. […] However, when rHCRG21 was co-applied together with the agonist capsaicin, a reduction of the current was observed (Figure 5b). […] A concentration–response curve was constructed in order to assess the concentration dependence of the rHCRG21 induced effect. The IC50 value yielded 6.9 ± 0.4 μM (Figure 5c).
Figure 5 Activity profile of rHCRG21 (10 μM) on the TRPV1 receptor. The figures show the results of one representative experiment. Whole-cell current traces in control and rHCRG21 conditions are shown. […] All data represent the average of at least three independent experiments (n ≥ 3) and are presented as mean ± standard error; (c) Concentration–response curve for rHCRG21 on TRPV1 receptor.
For the expression of rKv1.1, hKv1.3, rKv1.4, rKv1.5, rKv1.6, Shaker IR, hERG, and TRPV1 in Xenopus oocytes, the linearized plasmids were transcribed using the T7 or SP6 mMESSAGE-mMACHINE transcription kit (Ambion, Austin, TX, USA). The harvesting of stage V–VI oocytes from anaesthetized female Xenopus laevis frog was previously described. Oocytes were injected with 50 nL of cRNA at a concentration of 1 ng/nL using a micro-injector (Drummond Scientific, Broomall, PA, USA). The oocytes were incubated in a solution containing (in mM): NaCl, 96; KCl, 2; CaCl2, 1.8; MgCl2, 2 and HEPES, 5 (pH 7.4), supplemented with 50 mg/L gentamicin sulfate.
Two-electrode voltage-clamp recordings were performed at room temperature (18–22 °C) using a Geneclamp 500 amplifier (Molecular Devices, Sunnyvale, CA, USA) controlled by a pClamp data acquisition system (Axon Instruments, Foster City, CA, USA). Whole cell currents from oocytes were recorded 1–4 days after injection. Bath solution composition was ND96 (in mM): NaCl, 96; KCl, 2; CaCl2, 1.8; MgCl2, 2, and HEPES, 5 (pH 7.4). Voltage and current electrodes were filled with 3 M KCl. Resistances of both electrodes were kept between 0.8 and 1.5 MΩ. The elicited currents were filtered and sampled at, respectively, 1 kHz and 10 kHz (for potassium currents) and at, respectively, 0.2 kHz and 0.5 kHz (for TRPV1 currents), using a four-pole low-pass Bessel filter. Leak subtraction was performed using a –P/4 protocol. KV1.1–KV1.6 and Shaker currents were evoked by 500 ms depolarizations to 0 mV followed by a 500 ms pulse to −50 mV, from a holding potential of −90 mV. Current traces of hERG channels were elicited by applying a +40 mV prepulse for 2 s followed by a step to −120 mV for 2 s. TRPV1 currents were measured in ND96 solution using a protocol of −90 mV during 400 s. The recording chamber was perfused at a rate of 2 mL·min^−1 with a ND96 solution. As previously described, capsaicin (2 μM) was used as an agonist and capsazepine (10 μM) as an antagonist of TRPV1. Capsaicin and capsazepine were purchased from Sigma. All data represent at least 3 independent experiments (n ≥ 3) in which independent experiments represent experiments on different cells expressing TRPV1 channel and are presented as mean ± standard error.

rKv1.1 = experiment: Kv1.1 currents, two-electrode voltage-clamp in Xenopus laevis oocytes; format: cell-based; conditions: 10 μM peptide, n ≥ 3; holding −90 mV, 500 ms to 0 mV; ND96 pH 7.4
Experimental: (§2) In order to characterize HCRG21 functionally, recombinant HCRG21 was, at a concentration of 10 μM, tested for its activity against an 8 voltage-gated potassium channels (Kv1.1–Kv1.6, hERG, and Shaker IR) and the vanilloid receptor 1 (TRPV1).
(§3) Figure 4 Activity of rHCRG21 on Kv channels expressed in X. laevis oocytes. Traces shown are representative of at least three independent experiments (n ≥ 3). The dotted line indicates the zero current level. The asterisk (*) distinguishes the steady-state current after application of 10 μM peptide.
(§4) For the expression of rKv1.1, hKv1.3, rKv1.4, rKv1.5, rKv1.6, Shaker IR, hERG, and TRPV1 in Xenopus oocytes, the linearized plasmids were transcribed using the T7 or SP6 mMESSAGE-mMACHINE transcription kit (Ambion, Austin, TX, USA). The harvesting of stage V–VI oocytes from anaesthetized female Xenopus laevis frog was previously described. […]
(§5) Two-electrode voltage-clamp recordings were performed at room temperature (18–22 °C) using a Geneclamp 500 amplifier (Molecular Devices, Sunnyvale, CA, USA) controlled by a pClamp data acquisition system (Axon Instruments, Foster City, CA, USA). Whole cell currents from oocytes were recorded 1–4 days after injection. […] TRPV1 currents were measured in ND96 solution using a protocol of −90 mV during 400 s. […]

Kv1.2 = Kv1.2 currents, two-electrode voltage-clamp in Xenopus laevis oocytes; format: cell-based; conditions: 10 μM peptide, n ≥ 3; holding −90 mV, 500 ms to 0 mV; ND96 pH 7.4
Experimental: as §2, §3
Two-electrode voltage-clamp recordings were performed at room temperature (18–22 °C) using a Geneclamp 500 amplifier (Molecular Devices, Sunnyvale, CA, USA) controlled by a pClamp data acquisition system (Axon Instruments, Foster City, CA, USA). Whole cell currents from oocytes were recorded 1–4 days after injection. Bath solution composition was ND96 (in mM): NaCl, 96; KCl, 2; CaCl2, 1.8; MgCl2, 2, and HEPES, 5 (pH 7.4). Voltage and current electrodes were filled with 3 M KCl. Resistances of both electrodes were kept between 0.8 and 1.5 MΩ. The elicited currents were filtered and sampled at, respectively, 1 kHz and 10 kHz (for potassium currents) and at, respectively, 0.2 kHz and 0.5 kHz (for TRPV1 currents), using a four-pole low-pass Bessel filter. […] TRPV1 currents were measured in ND96 solution using a protocol of −90 mV during 400 s. […]

hKv1.3 = experiment: Kv1.3 currents, two-electrode voltage-clamp in Xenopus laevis oocytes; format: cell-based; conditions: 10 μM peptide, n ≥ 3; holding −90 mV, 500 ms to 0 mV; ND96 pH 7.4
Experimental: as §2, §3, §4, §5

rKv1.4 = experiment: Kv1.4 currents, two-electrode voltage-clamp in Xenopus laevis oocytes; format: cell-based; conditions: 10 μM peptide, n ≥ 3; holding −90 mV, 500 ms to 0 mV; ND96 pH 7.4
Experimental: as §2, §3, §4, §5

rKv1.5 = experiment: Kv1.5 currents, two-electrode voltage-clamp in Xenopus laevis oocytes; format: cell-based; conditions: 10 μM peptide, n ≥ 3; holding −90 mV, 500 ms to 0 mV; ND96 pH 7.4
Experimental: as §2, §3, §4, §5

rKv1.6 = experiment: Kv1.6 currents, two-electrode voltage-clamp in Xenopus laevis oocytes; format: cell-based; conditions: 10 μM peptide, n ≥ 3; holding −90 mV, 500 ms to 0 mV; ND96 pH 7.4
Experimental: as §2, §3, §4, §5

hERG = hERG currents, two-electrode voltage-clamp in Xenopus laevis oocytes; format: cell-based; conditions: 10 μM peptide, n ≥ 3; +40 mV prepulse 2 s, then −120 mV 2 s; ND96 pH 7.4
Experimental: as §2, §3, §4, §5

Shaker IR = Shaker IR currents, two-electrode voltage-clamp in Xenopus laevis oocytes; format: cell-based; conditions: 10 μM peptide, n ≥ 3; holding −90 mV, 500 ms to 0 mV; ND96 pH 7.4
Experimental: as §2, §3, §4, §5

T1 sequence (O35433 whole entry): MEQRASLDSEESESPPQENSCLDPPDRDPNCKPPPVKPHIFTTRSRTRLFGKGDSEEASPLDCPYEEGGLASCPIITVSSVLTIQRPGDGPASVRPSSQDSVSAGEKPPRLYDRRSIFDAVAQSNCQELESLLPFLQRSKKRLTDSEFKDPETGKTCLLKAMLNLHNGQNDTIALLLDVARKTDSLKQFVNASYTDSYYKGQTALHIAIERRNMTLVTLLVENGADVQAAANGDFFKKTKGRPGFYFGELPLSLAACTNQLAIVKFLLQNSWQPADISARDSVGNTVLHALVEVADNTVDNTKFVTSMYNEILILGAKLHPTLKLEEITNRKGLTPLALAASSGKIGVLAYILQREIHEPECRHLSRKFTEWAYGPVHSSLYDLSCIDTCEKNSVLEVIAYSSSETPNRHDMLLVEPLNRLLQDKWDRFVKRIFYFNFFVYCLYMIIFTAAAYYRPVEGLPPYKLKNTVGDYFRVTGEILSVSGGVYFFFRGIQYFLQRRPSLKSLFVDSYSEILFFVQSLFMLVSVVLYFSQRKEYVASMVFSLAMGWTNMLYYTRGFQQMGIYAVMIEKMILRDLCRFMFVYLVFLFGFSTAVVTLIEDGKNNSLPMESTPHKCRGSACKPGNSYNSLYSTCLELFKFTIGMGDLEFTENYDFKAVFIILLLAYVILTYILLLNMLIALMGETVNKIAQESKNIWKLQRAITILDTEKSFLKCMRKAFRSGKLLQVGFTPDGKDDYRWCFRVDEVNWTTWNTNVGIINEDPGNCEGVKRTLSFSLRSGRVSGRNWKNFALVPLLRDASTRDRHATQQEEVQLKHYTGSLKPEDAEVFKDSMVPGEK

Sequence: RGICSEPKVVGPCTAYFRRFYFDSETGKCTPFIYGGCEGNGNNFETLRACRAICRA (disulfide 4-54, 13-37, 29-50 (inferred)) [rHCRG21]
- Ki (trypsin; Dixon method, BAPNA substrate, 133 and 65 mM, enzyme 215 nM, peptide 0 up to 3.2 mM, three parallel experiments): 200 nM
- Trypsin inhibitory activity of HPLC fraction (trypsin; fraction marked rHCRG21 after RP-HPLC): Trypsin inhibitory activity was detected
- Ki (α-chymotrypsin): 700 nM
- inhibition of capsaicin-induced TRPV1 current (TRPV1; 10 μM peptide co-applied with capsaicin (2 μM), −90 mV, ND96 pH 7.4, mean ± standard error, n ≥ 3): 59.3% ± 4.3%
- effect on TRPV1 when administered alone (TRPV1; 10 μM, in the absence of capsaicin): did not show any significant effect; also recorded: Lack of effect
- effect on TRPV1 when applied prior to capsaicin (TRPV1; applied prior to any stimulation of capsaicin, data not shown): no activity was seen
- IC50 (TRPV1; co-applied with capsaicin (2 μM), −90 mV, ND96 pH 7.4, 18–22 °C, mean ± standard error, n ≥ 3, read-out: IC50, inhibition of capsaicin-induced TRPV1 current): 6.9 ± 0.4 µM
- effect on TRPV1 channel (conclusion) (TRPV1; electrophysiological data): strongly inhibits the TRPV1 channel
- activity on Kv1.1 (rKv1.1): did not exert any activity
- activity on Kv1.2 (Kv1.2): did not exert any activity
- activity on Kv1.3 (hKv1.3): did not exert any activity
- activity on Kv1.4 (rKv1.4): did not exert any activity
- activity on Kv1.5 (rKv1.5): did not exert any activity
- activity on Kv1.6 (rKv1.6): did not exert any activity
- activity on hERG (hERG): did not exert any activity
- activity on Shaker IR (Shaker IR): did not exert any activity
